Test results from patent US20240360116A1, “BICYCLIC DERIVATIVES” (ELANCO TIERGESUNDHEIT AG, priority 2020, published 2024).
Where “and” joins values, the source holds several entries; their conditions need not be identical. Equal values may be shown once.

Key:
[1] = system: Dirofilaria immitis third-stage larvae; test: In Vitro Assay 4: Dirofilaria immitis (DIROIM L4); details: 72 h, read-out: EC50 (reduction of motility)
[2] = system: Adult Nippostrongylus brasiliensis; test: In Vitro Assay 5: Nippostrongylus brasiliensis (NIPOBR), acetylcholine esterase readout; details: adult worms, tested at 10, 1 and 0.1 ppm, vs negative control
Method: Adult Nippostrongylus brasiliensis were washed with saline buffer containing 100 U/ml penicillin, 0.1 mg/ml streptomycin and 2.5 μg/ml amphotericin B. Test compounds were dissolved in DMSO and worms were incubated in medium in a final concentration of 10 μg/ml (10 ppm), 1 μg/ml (1 ppm) and 0.1 μg/ml (0.1 ppm) respectively. An aliquot of the medium was used to determine the acetylcholine esterase activity in comparison to a negative control. The principle of measuring acetylcholine esterase as readout for anthelmintic activity was described in Rapson et al (1986) and Rapson et al (1987).
Based on the evaluation of a wide concentration range, concentration-response curves as well as EC50-values were calculated.

[3] = biological target: D. immitis Slo-1 (Dirofilaria immitis, UniProt I0DFK5); test: In Vitro Assay 2: D. immitis Slo-1 recombinant CHO cell line, membrane potential; type: cell-based; details: EC50, CHO cells expressing D. immitis Slo-1, voltage sensitive dye, FLIPR Tetra, 70 mM KCl
[4] = system: Dirofilaria immitis microfilariae; test: In Vitro Assay 3: Dirofilaria immitis microfilariae (DIROIM L1); details: 72 h, read-out: EC50 (reduction of motility)

Chain of D. immitis Slo-1 (I0DFK5 1-1119): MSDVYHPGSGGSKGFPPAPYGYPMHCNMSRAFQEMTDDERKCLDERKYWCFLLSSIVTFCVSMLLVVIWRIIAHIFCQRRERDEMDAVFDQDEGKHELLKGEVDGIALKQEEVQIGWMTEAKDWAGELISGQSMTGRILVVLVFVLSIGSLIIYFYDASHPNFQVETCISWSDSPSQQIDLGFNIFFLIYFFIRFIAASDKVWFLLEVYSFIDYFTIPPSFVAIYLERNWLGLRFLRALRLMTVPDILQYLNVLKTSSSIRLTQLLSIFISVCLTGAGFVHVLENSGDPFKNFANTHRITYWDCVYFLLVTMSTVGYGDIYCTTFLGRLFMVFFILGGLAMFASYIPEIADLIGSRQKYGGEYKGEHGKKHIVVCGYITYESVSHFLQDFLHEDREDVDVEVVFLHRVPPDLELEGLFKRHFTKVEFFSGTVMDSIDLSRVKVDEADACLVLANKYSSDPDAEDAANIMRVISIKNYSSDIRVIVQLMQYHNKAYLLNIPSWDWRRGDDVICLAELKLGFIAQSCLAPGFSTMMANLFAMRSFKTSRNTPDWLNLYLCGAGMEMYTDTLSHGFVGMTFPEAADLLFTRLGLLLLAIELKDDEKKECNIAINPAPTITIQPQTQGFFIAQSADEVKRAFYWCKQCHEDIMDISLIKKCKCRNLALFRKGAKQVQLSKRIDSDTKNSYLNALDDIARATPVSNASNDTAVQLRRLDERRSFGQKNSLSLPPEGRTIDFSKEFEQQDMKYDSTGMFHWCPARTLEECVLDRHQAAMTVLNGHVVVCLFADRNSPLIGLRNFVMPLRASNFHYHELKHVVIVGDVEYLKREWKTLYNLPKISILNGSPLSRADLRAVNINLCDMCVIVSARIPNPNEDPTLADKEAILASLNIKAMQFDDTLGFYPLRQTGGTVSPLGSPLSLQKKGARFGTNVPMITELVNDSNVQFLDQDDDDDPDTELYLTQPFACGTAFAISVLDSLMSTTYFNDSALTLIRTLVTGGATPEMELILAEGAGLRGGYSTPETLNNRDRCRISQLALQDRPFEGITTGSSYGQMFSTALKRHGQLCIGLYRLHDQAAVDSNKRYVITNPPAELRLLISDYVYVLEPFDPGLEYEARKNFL

SMILES: O=C(NN1CCOc2ccccc21)c1cnc2c(-c3cc(F)cc(F)c3F)c(F)ccc2c1N1C[C@@H](F)[C@@H](F)C1 (single isomer, unassigned) [Example 5.89, 4-(3,4-difluoropyrrolidin-1-yl)-N-(2,3-dihydro-1,4-benzoxazin-4-yl)-7-fluoro-8-(2,3,5-trifluorophenyl)quinoline-3-carboxamide]
- EC50 [1]: < 0.1 mg/L
- EC50 [2]: < 0.1 mg/L
- EC50 [3]: < 0.1 µM

SMILES: N#Cc1c(Cl)cc(C(F)(F)F)cc1-c1cccc2c(N3CCOCC3)c(C(=O)NN3CCOc4ccccc43)cnc12 [Example 5.76, 8-[3-chloro-2-cyano-5-(trifluoromethyl)phenyl]-N-(2,3-dihydro-1,4-benzoxazin-4-yl)-4-morpholino-quinoline-3-carboxamide]
- EC50 [3]: 0.1 to 1 µM

SMILES: Nc1c(Cl)cc(C(F)(F)F)cc1-c1cccc2c(N3CCOCC3)c(C(=O)NN3CCOc4ccccc43)cnc12 [Example 5.77, 8-[2-amino-3-chloro-5-(trifluoromethyl)phenyl]-N-(2,3-dihydro-1,4-benzoxazin-4-yl)-4-morpholino-quinoline-3-carboxamide]
- EC50 [3]: < 0.1 µM and 0.1 to 1 µM

SMILES: O=C(NN1CCOc2ccccc21)c1cnc2c(-c3cc(F)cc(F)c3F)c(F)ccc2c1N1CC(F)C1 [Example 5.78, N-(2,3-dihydro-1,4-benzoxazin-4-yl)-7-fluoro-4-(3-fluoroazetidin-1-yl)-8-(2,3,5-trifluorophenyl)quinoline-3-carboxamide]
- EC50 [3]: < 0.1 µM

SMILES: O=C(NN1CCOc2ccccc21)c1cnc2c(-c3cc(Cl)cc(F)c3F)c(F)ccc2c1N1CC(F)C1 [Example 5.79, 8-(5-chloro-2,3-difluoro-phenyl)-N-(2,3-dihydro-1,4-benzoxazin-4-yl)-7-fluoro-4-(3-fluoroazetidin-1-yl)quinoline-3-carboxamide]
- EC50 [2]: < 0.1 mg/L
- EC50 [3]: 0.1 to 1 µM

SMILES: O=C(NN1CCOc2ccccc21)c1cnc2c(-c3cc(C(F)(F)F)cc(F)c3Br)cccc2c1N1CCOCC1 [Example 5.80, 8-[2-bromo-3-fluoro-5-(trifluoromethyl)phenyl]-N-(2,3-dihydro-1,4-benzoxazin-4-yl)-4-morpholino-quinoline-3-carboxamide]
- EC50 [2]: < 0.1 mg/L
- EC50 [3]: < 0.1 µM

SMILES: N#Cc1c(F)cc(C(F)(F)F)cc1-c1cccc2c(N3CCOCC3)c(C(=O)NN3CCOc4ccccc43)cnc12 [Example 5.81, 8-[2-cyano-3-fluoro-5-(trifluoromethyl)phenyl]-N-(2,3-dihydro-1,4-benzoxazin-4-yl)-4-morpholino-quinoline-3-carboxamide]
- EC50 [3]: 0.1 to 1 µM

SMILES: O=C1CC(c2c(C(=O)NN3CCOc4ccccc43)cnc3c(-c4cc(F)cc(F)c4F)c(F)ccc23)C1 [Example 5.82, N-(2,3-dihydro-1,4-benzoxazin-4-yl)-7-fluoro-4-(3-oxocyclobutyl)-8-(2,3,5-trifluorophenyl)quinoline-3-carboxamide]
- EC50 [1]: < 0.1 mg/L
- EC50 [4]: < 0.1 mg/L
- EC50 [2]: < 0.1 mg/L
- EC50 [3]: < 0.1 µM

SMILES: O=C(NN1CCOc2ccc(F)cc21)c1cnc2c(-c3cc(F)cc(F)c3F)c(F)ccc2c1N1CCOCC1 [Example 5.83, 7-fluoro-N-(6-fluoro-2,3-dihydro-1,4-benzoxazin-4-yl)-4-morpholino-8-(2,3,5-trifluorophenyl)quinoline-3-carboxamide]
- EC50 [1]: < 0.1 mg/L
- EC50 [4]: < 0.1 mg/L
- EC50 [2]: < 0.1 mg/L
- EC50 [3]: < 0.1 µM

SMILES: COC1CN(c2c(C(=O)NN3CCOc4ccccc43)cnc3c(-c4cc(F)cc(F)c4F)c(F)ccc23)C1 [Example 5.84, N-(2,3-dihydro-1,4-benzoxazin-4-yl)-7-fluoro-4-(3-methoxyazetidin-1-yl)-8-(2,3,5-trifluorophenyl)quinoline-3-carboxamide]
- EC50 [3]: 0.1 to 1 µM

SMILES: O=C(NN1CCOc2ccccc21)c1cnc2c(-c3cc(F)cc(F)c3F)c(F)ccc2c1C1CSC1 [Example 5.85, N-(2,3-dihydro-1,4-benzoxazin-4-yl)-7-fluoro-4-(thietan-3-yl)-8-(2,3,5-trifluorophenyl)quinoline-3-carboxamide]
- EC50 [2]: < 0.1 mg/L
- EC50 [3]: < 0.1 µM

SMILES: O=C(NN1CCOc2ccccc21)c1cnc2c(-c3cc(F)cc(F)c3F)c(F)ccc2c1C1CS(=O)(=O)C1 [Example 5.86, N-(2,3-dihydro-1,4-benzoxazin-4-yl)-4-(1,1-dioxothietan-3-yl)-7-fluoro-8-(2,3,5-trifluorophenyl)quinoline-3-carboxamide]
- EC50 [3]: 0.1 to 1 µM

SMILES: CN(c1c(C(=O)NN2CCOc3ccccc32)cnc2c(-c3cc(F)cc(F)c3F)c(F)ccc12)C1CC(F)C1 (stereo not shown) [Example 5.87, N-(2,3-dihydro-1,4-benzoxazin-4-yl)-7-fluoro-4-[(3-fluorocyclobutyl)-methyl-amino]-8-(2,3,5-trifluorophenyl)quinoline-3-carboxamide]
- EC50 [2]: < 0.1 mg/L

SMILES: O=C(NN1CCOc2ccccc21)c1cnc2c(-c3cc(F)cc(F)c3F)c(F)ccc2c1N1C[C@@H](F)[C@H](F)C1 [Example 5.92, 4-[(3R,4R)-3,4-difluoropyrrolidin-1-yl]-N-(2,3-dihydro-1,4-benzoxazin-4-yl)-7-fluoro-8-(2,3,5-trifluorophenyl)quinoline-3-carboxamide]
- EC50 [1]: < 0.1 mg/L
- EC50 [2]: < 0.1 mg/L

SMILES: O=C(NN1CCOc2ccccc21)c1cnc2c(-c3cc(C(F)(F)F)cc(F)c3F)c(F)ccc2c1N1CCOCC1 [Example 5.94, 8-(2,3-difluoro-5-(trifluoromethyl)phenyl)-N-(2,3-dihydro-4H-benzo[b][1,4]oxazin-4-yl)-7-fluoro-4-morpholinoquinoline-3-carboxamide]
- EC50 [3]: < 0.1 µM

SMILES: O=C(NN1CCOc2ccccc21)c1cnc2c(-c3cc(F)cc(F)c3F)c(F)ccc2c1C1CC(F)(F)C1 [Example 5.95, 4-(3,3-difluorocyclobutyl)-N-(2,3-dihydro-4H-benzo[b][1,4]oxazin-4-yl)-7-fluoro-8-(2,3,5-trifluorophenyl)quinoline-3-carboxamide]
- EC50 [3]: < 0.1 µM

SMILES: O=C(NN1CCOc2ccccc21)c1cnc2c(-c3cc(C(F)(F)F)cc(F)c3F)c(F)ccc2c1N1CC(F)C1 [Example 5.96, 8-(2,3-difluoro-5-(trifluoromethyl)phenyl)-N-(2,3-dihydro-4H-benzo[b][1,4]oxazin-4-yl)-7-fluoro-4-(3-fluoroazetidin-1-yl)quinoline-3-carboxamide]
- EC50 [3]: 0.1 to 1 µM

SMILES: O=C(NN1CCOc2ccc(F)cc21)c1cnc2c(-c3cc(F)cc(F)c3F)c(F)ccc2c1C1CCOC1 (stereo not shown) [Example 5.97, 7-fluoro-N-(6-fluoro-2,3-dihydro-4H-benzo[b][1,4]oxazin-4-yl)-4-(tetrahydrofuran-3-yl)-8-(2,3,5-trifluorophenyl)quinoline-3-carboxamide]
- EC50 [3]: < 0.1 µM

SMILES: O=C(NN1CCOc2ccc(F)cc21)c1cnc2c(-c3cc(F)cc(F)c3F)c(F)ccc2c1N1CC(F)C1 [Example 5.98, 7-fluoro-N-(6-fluoro-2,3-dihydro-4H-benzo[b][1,4]oxazin-4-yl)-4-(3-fluoroazetidin-1-yl)-8-(2,3,5-trifluorophenyl)quinoline-3-carboxamide]
- EC50 [3]: 0.1 to 1 µM

SMILES: C=C(C)c1c(C(=O)NN2CCOc3ccc(F)cc32)cnc2c(-c3cc(F)cc(F)c3F)c(F)ccc12 [Example 5.99, 7-fluoro-N-(6-fluoro-2,3-dihydro-4H-benzo[b][1,4]oxazin-4-yl)-4-(prop-1-en-2-yl)-8-(2,3,5-trifluorophenyl)quinoline-3-carboxamide]
- EC50 [3]: 0.1 to 1 µM

SMILES: O=C(NN1CCOc2ccccc21)c1cnc2c(-c3cc(F)cc(F)c3F)c(F)ccc2c1C1CC(F)C1 (stereo not shown) [Example 5.101, N-(2,3-dihydro-4H-benzo[b][1,4]oxazin-4-yl)-7-fluoro-4-(3-fluorocyclobutyl)-8-(2,3,5-trifluorophenyl)quinoline-3-carboxamide]
- EC50 [3]: < 0.1 µM

SMILES: O=C(NN1CCOc2ccccc21)c1cnc2c(-c3cc(F)cc(S(F)(F)(F)(F)F)c3)c(F)ccc2c1C1CCOC1 (stereo not shown) [Example 5.102, N-(2,3-dihydro-4H-benzo[b][1,4]oxazin-4-yl)-7-fluoro-8-(3-fluoro-5-(pentafluoro-sulfanyl)phenyl)-4-(tetrahydrofuran-3-yl)quinoline-3-carboxamide]
- EC50 [3]: < 0.1 µM

SMILES: O=C(NN1CCOc2ccccc21)c1cnc2c(-c3cc(F)cc(F)c3F)c(F)c(F)cc2c1N1CCOCC1 [Example 5.105, N-(2,3-dihydro-4H-benzo[b][1,4]oxazin-4-yl)-6,7-difluoro-4-morpholino-8-(2,3,5-trifluorophenyl)quinoline-3-carboxamide]
- EC50 [3]: < 0.1 µM

SMILES: O=C(NN1CCOc2ccc(F)cc21)c1cnc2c(-c3cc(F)cc(F)c3F)c(F)ccc2c1C1CS(=O)(=O)C1 [Example 5.106, 4-(1,1-dioxidothietan-3-yl)-7-fluoro-N-(6-fluoro-2,3-dihydro-4H-benzo[b][1,4]oxazin-4-yl)-8-(2,3,5-trifluorophenyl)quinoline-3-carboxamide]
- EC50 [2]: < 0.1 mg/L
- EC50 [3]: 0.1 to 1 µM

SMILES: O=C(NN1CCOc2ccccc21)c1cnc2c(-c3cc(C(F)(F)F)cc(F)c3F)c(F)ccc2c1C1CS(=O)(=O)C1 [Example 5.107, 8-(2,3-difluoro-5-(trifluoromethyl)phenyl)-N-(2,3-dihydro-4H-benzo[b][1,4]oxazin-4-yl)-4-(1,1-dioxidothietan-3-yl)-7-fluoroquinoline-3-carboxamide]
- EC50 [2]: < 0.1 mg/L
- EC50 [3]: 0.1 to 1 µM

SMILES: O=C(NN1C(=O)COc2ccccc21)c1cnc2c(-c3cc(F)cc(F)c3F)cccc2c1N1CCOCC1 [Example 5.109, 4-morpholino-N-(3-oxo-2,3-dihydro-4H-benzo[b][1,4]oxazin-4-yl)-8-(2,3,5-trifluorophenyl)quinoline-3-carboxamide]
- EC50 [3]: 0.1 to 1 µM
